We go through 18 compounds from patent US20190388421A1, “NOVEL COMPOUNDS AND PHARMACEUTICAL COMPOSITIONS THEREOF FOR THE TREATMENT OF FIBROSIS” (Galapagos NV, priority 2016, published 2019).

One test concerns the target T1, S1PR2 (Homo sapiens, UniProt O95136).
T1 construct: expressed in transfected cells
The experiment in a line: GTP-γS binding assay ([35S]GTPγS, S1P at EC80, S1PR2 membranes). Format: biochemical. As to conditions: membranes from stable cell line over expressing S1PR2, read-out: S1PR2 EC. As to the method:
The following assay can be used for determination of S1PR2 activation. The [^35S] GTPγS assay measures the level of G protein activation following agonist occupation of a GPCR, by determining the binding of the non-hydrolysable analog [^35S] GTPγS to Gα subunits.
The assay is performed in a 96 well plate where the following reagents are added. First 50 μL compound is added into the assay plate, followed by addition of 20 μL S1P at EC80 concentration (concentration which gives 80% of the activity of S1PR2). Then, 30 μL of a mixture consisting of membranes-GTPγS-SpA beads is added [mixture consists of 2.5 μg/well membranes derived from stable cell line over expressing S1PR2 (membranes are pre-incubated with 1 μM GDP for 15 min at 4° C.), 0.1 nM [35S]GTPγS (Perkin Elmer, NEG030) and 0.5 mg/well PVT-WGA SpA beads (Perkin Elmer, RPNQ0001)]. All components are diluted in assay buffer containing 20 mM Tris pH 7.5; 10 mM MgCl2; 100 mM NaCl; 0.1% BSA FAF; 50 ug/ml saponin. After an incubation for 4 h at room temperature, plates are centrifuged at 2000 rpm during 20 min. Plates are read on a Topcount reader (Perkin Elmer) immediately after centrifugation (readout time, 1 min/well).

Test [1] concerns the target T2, human GPCR sphingosine 1-phosphate receptor 2 (S1PR2) (Homo sapiens, UniProt O95136).
T2 construct: host or cells: CHO
The experiment in a line: S1P2 antagonist assay (Ca2+ flux, S1P at EC80). Format: cell-based. The settings on record: CHO-S1PR2 cells, highest concentration 20 μM. As to the method:
Triggering of S1PR2 by administration of Sphingosine-1-phosphate leads to a transient increase in intracellular Ca^2+. The Ca^2+ flux assays are measuring the release of Ca^2+ intracellularly by use of a Ca^2+ sensitive fluorescent dye. The assay is firstly run in agonist mode (incubation of compounds alone) to ensure that the Ca^2+ released measured is not caused by the test compound having an agonistic effect. Then the assay is continued in antagonist mode (Sphingosine-1-Phosphate added to incubated medium containing the test compounds).
CHO cells stably overexpressing human GPCR sphingosine 1-phosphate receptor 2 (CHO—S1PR2 Perkin Elmer; ES-594-A) are seeded from a frozen stock in 384 wells sterile microplates (50 μL; 7,500 cells/well) and are incubated overnight at 37° C. and 5% CO2. The next day cells are washed twice with starvation medium (F-12 Ham's medium containing 0.1% BSA (Fatty acid free: FAF)) and left in […] starvation medium for 1 h at 37° C., 5% CO2. After this starvation cells are incubated with […] buffer containing the Ca^2+-sensitive fluorescent dye (0.5 mg Fluo8+125 mg Allura Red in 100 ml of 1% DMSO, in HBSS+20 mM Hepes+5 mM probenecid). The cells are incubated for an additional 1 hour after which 10 μL compounds, diluted in HBSS buffer with 20 mM Hepes and 0.1% BSA (FAF), are added to the cells and intracellular Ca^2+ changes are immediately measured by reading fluorescence during 3 min (FDSS/μCELL reader). The ratio of the maximal fluorescence over the background fluorescence before compound injection is used to determine compound response.
(§1) After readout of the agonist activity, the plates are incubated for 15 min at 37° C. and 5% CO2. Then, cells are stimulated with 10 μL Sphingosine-1-Phosphate (S1P) (Avanti Polar lipids-860492P) at its EC80 concentration. Intracellular Ca^2+ changes are immediately measured by reading fluorescence during 3 min (FDSS/μCELL reader). The ratio of the maximal fluorescence over the background fluorescence before compound injection is used to determine compound response.
(§2) For EC50 determination, a 10 point dilution series of compounds starting from 23.3 μM and 20 μM highest final concentration for agonist and antagonist respectively, ⅓ dilution was performed.
(§3) The obtained ratio's for agonist and antagonist readout were normalized versus vehicle and EC100 of S1P as controls for agonist mode and versus vehicle and EC80 of S1P for antagonist mode. From these normalized data EC50 of the compounds are derived.

Test [2] has as its target T3, human GPCR sphingosine 1-phosphate receptor 1 (S1PR1) (Homo sapiens, UniProt P21453).
T3 construct: host or cells: CHO
Description: S1PR1 selectivity assay (Ca2+ flux, antagonist). As to conditions: S1P1 antagonist EC50, CHO cells overexpressing human S1PR1 and Gq protein. Type of test: cell-based. Here is the method: as §1, §2, §3
(§4) To evaluate the selectivity of the compounds for S1PR2 over S1PR1 and S1PR5, a similar assay set up as described above for the S1PR2 calcium flux assays was performed: CHO cells stably overexpressing human GPCR sphingosine 1-phosphate receptor 1 and Gq protein (Euroscreen, FAST-0197A) or overexpressing human GPCR sphingosine 1-phosphate receptor 5 and Gq protein were used (Perkin Elmer, ES-593-A). In case of the S1PR5 assay triggering was done with an S1PR5 specific agonist instead of with S1P (Hobson et al., 2015).

The target in test [3] is T4, human GPCR sphingosine 1-phosphate receptor 5 (S1PR5) (Homo sapiens, UniProt Q9H228).
T4 construct: host or cells: CHO
T4 sequence (Q9H228 whole entry): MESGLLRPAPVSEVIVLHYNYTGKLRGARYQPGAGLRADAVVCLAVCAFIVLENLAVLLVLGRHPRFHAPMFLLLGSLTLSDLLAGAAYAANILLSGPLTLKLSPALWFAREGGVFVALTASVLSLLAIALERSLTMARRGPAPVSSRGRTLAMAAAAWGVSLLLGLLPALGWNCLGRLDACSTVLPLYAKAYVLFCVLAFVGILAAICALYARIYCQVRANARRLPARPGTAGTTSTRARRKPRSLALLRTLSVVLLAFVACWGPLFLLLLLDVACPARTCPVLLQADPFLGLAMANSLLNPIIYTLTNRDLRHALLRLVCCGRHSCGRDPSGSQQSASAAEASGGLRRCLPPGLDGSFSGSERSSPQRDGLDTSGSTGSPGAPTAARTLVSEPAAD
Description: S1PR5 selectivity assay (Ca2+ flux, antagonist, S1PR5 specific agonist trigger). Format: cell-based. As to conditions: S1P5 antagonist EC50, CHO cells overexpressing human S1PR5 and Gq protein. As to the method:
as §1, §2, §3, §4

T2 sequence (O95136 whole entry): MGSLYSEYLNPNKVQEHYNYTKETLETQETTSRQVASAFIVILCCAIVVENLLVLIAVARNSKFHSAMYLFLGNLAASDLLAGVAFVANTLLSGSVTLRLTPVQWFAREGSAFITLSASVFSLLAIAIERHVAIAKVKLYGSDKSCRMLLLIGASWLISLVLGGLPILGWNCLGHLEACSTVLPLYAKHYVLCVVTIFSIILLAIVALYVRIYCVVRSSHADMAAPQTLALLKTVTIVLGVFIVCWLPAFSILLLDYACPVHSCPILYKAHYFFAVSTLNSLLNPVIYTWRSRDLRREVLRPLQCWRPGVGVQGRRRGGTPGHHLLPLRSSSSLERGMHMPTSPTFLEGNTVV
T1 sequence (O95136 whole entry): as above
T3 sequence (P21453 whole entry): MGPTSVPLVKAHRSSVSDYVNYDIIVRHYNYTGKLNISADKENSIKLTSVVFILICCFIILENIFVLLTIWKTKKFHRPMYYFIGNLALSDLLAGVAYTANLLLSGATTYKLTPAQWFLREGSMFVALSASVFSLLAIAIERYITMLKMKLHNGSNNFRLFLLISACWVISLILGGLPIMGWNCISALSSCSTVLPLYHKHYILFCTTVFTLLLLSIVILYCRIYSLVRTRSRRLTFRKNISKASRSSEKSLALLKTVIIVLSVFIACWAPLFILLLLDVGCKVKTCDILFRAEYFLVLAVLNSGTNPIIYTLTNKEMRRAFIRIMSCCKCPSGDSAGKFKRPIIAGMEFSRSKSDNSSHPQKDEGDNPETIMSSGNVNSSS

For the compound `CCOc1cc(N[14C](=O)NCc2cc(C)c(-c3cn(C)nc3C(F)(F)F)nn2)cc(C(F)(F)F)n1` [Compound 98, 1-(2-Ethoxy-6-trifluoromethyl-pyridin-4-yl)-3-[5-methyl-6-(1-methyl-3-trifluoromethyl-1H-pyrazol-4-yl)-pyridazin-3-ylmethyl]-C14 urea], the EC50 on S1PR2 came to 16.3 µM.
As to `Cc1cc(CNC(=O)Nc2cc(Cl)cc(Cl)c2)nnc1-c1cn(C)nc1C(F)(F)F` [Compound 6, 1-(3,5-dichlorophenyl)-3-[[5-methyl-6-[1-methyl-3-(trifluoromethyl)pyrazol-4-yl]pyridazin-3-yl]methyl]urea], the EC50 on S1PR2 was found to be 0.0502 µM; in test [1], 0.0169 µM.
With `Cc1cc(CNC(=O)Nc2cnc(OCC3CC3)c(C(F)(F)F)c2)nnc1-c1cn(C)nc1C(F)(F)F` [Compound 11, 1-[6-cyclopropyl-methoxy-5-(trifluoromethyl)-3-pyridyl]-3-[[5-methyl-6-[1-methyl-3-(trifluoromethyl)pyrazol-4-yl]pyridazin-3-yl]methyl]urea], the EC50 at S1PR2 is 0.716 µM; in test [1], 0.0496 µM.
For the compound `Cc1cc(CNC(=O)Nc2cnc(OCC3CC3)c(Cl)c2)nnc1N1CC(C)OC(C)C1` (stereo not shown) [Compound 88, 1-[5-chloro-6-(cyclopropyl-methoxy)-3-pyridyl]-3-[[6-(2,6-dimethyl-morpholin-4-yl)-5-methyl-pyridazin-3-yl]methyl]urea], the EC50 in test [1] is 4.51 µM.
`Cc1cc(CNC(=O)Nc2cnc(OCC3CC3)c(Cl)c2)nnc1-c1cn(C)nc1C(F)(F)F` [Compound 13, 1-[5-chloro-6-(cyclopropyl-methoxy)-3-pyridyl]-3-[[5-methyl-6-[1-methyl-3-(trifluoromethyl)pyrazol-4-yl]pyridazin-3-yl]methyl]urea]: the EC50 on S1PR2 worked out at 1.12 µM; in test [1], 0.0403 µM.
With `CCOc1nc(C(F)(F)F)cc(NC(=O)NCc2cc(C)c(-c3cn(C)nc3C(F)(F)F)nn2)c1Br` [Compound 49, 1-[3-bromo-2-ethoxy-6-(trifluoromethyl)-4-pyridyl]-3-[[5-methyl-6-[1-methyl-3-(trifluoromethyl)pyrazol-4-yl]pyridazin-3-yl]methyl]urea], in test [1], the EC50 worked out at 0.0115 µM.
With `CCOc1cc(NC(=O)NCc2cc(C)c(-c3cn(C)nc3C(F)(F)F)nn2)nc(OCC)n1` [Compound 31, 1-(2,6-diethoxy-pyrimidin-4-yl)-3-[[5-methyl-6-[1-methyl-3-(trifluoromethyl)pyrazol-4-yl]pyridazin-3-yl]methyl]urea], the EC50 at S1PR2 was determined as 1.65 µM; in test [1], 3.14 µM.
The matching figures for `Cc1cc(CNC(=O)Nc2cc(Cl)nc(OCC(F)(F)F)c2)nnc1-c1cn(C)nc1C(F)(F)F` [Compound 14, 1-[2-chloro-6-(2,2,2-trifluoroethoxy)-4-pyridyl]-3-[[5-methyl-6-[1-methyl-3-(trifluoromethyl)pyrazol-4-yl]pyridazin-3-yl]methyl]urea]: 0.225 µM and 0.0242 µM.
The matching figures for `Cc1cc(CNC(=O)Nc2cc(OCC(F)F)nc(C(F)(F)F)c2)nnc1-c1cn(C)nc1C(F)(F)F` [Compound 19, 1-[2-(2,2-difluoroethoxy)-6-(trifluoromethyl)-4-pyridyl]-3-[[5-methyl-6-[1-methyl-3-(trifluoromethyl)pyrazol-4-yl]pyridazin-3-yl]methyl]urea]: 0.0887 µM and 0.0171 µM.
Regarding `CCOc1ncc(NC(=O)NCc2cc(C)c(N3CC(C)OC(C)C3)nn2)cc1Cl` (stereo not shown) [Compound 86, 1-(5-chloro-6-ethoxy-3-pyridyl)-3-[[6-(2,6-dimethyl-morpholin-4-yl)-5-methyl-pyridazin-3-yl]methyl]urea], the EC50 in test [1] was determined as 1.36 µM.
In the case of `Cc1cc(CNC(=O)Nc2cc(OCC(F)F)nc(C3CC3)c2)nnc1-c1cn(C)nc1C(F)(F)F` [Compound 29, 1-[2-cyclopropyl-6-(2,2-difluoroethoxy)-4-pyridyl]-3-[[5-methyl-6-[1-methyl-3-(trifluoromethyl)pyrazol-4-yl]pyridazin-3-yl]methyl]urea], the EC50 at S1PR2 came out at 0.275 µM; in test [1], 0.0273 µM.
In the case of `Cc1cc(CNC(=O)Nc2cc(OCC3CC3(F)F)nc(C(F)(F)F)c2)nnc1-c1cn(C)nc1C(F)(F)F` (stereo not shown) [Compound 33, 1-[2-[(2,2-difluoro-cyclopropyl)methoxy]-6-(trifluoromethyl)-4-pyridyl]-3-[[5-methyl-6-[1-methyl-3-(trifluoromethyl)pyrazol-4-yl]pyridazin-3-yl]methyl]urea], the EC50 at S1PR2 came to 0.164 µM; in test [1], 0.0371 µM.
With `CCOc1nc(C)cc(NC(=O)NCc2cc(C)c(N3C[C@@H](C)O[C@@H](C)C3)nn2)c1C` [Compound 95, 1-[[6-[(2R,6S)-2,6-dimethyl-morpholin-4-yl]-5-methyl-pyridazin-3-yl]methyl]-3-(2-ethoxy-3,6-dimethyl-4-pyridyl)urea], the EC50 in test [2] came out at 6.61 µM; in test [3], 0.809 µM.
Take `Cc1cc(CNC(=O)Nc2cc(OCC3CCOC3)nc(C(F)(F)F)c2)nnc1-c1cn(C)nc1C(F)(F)F` (stereo not shown) [Compound 36]: the EC50 was 1.8 µM on S1PR2 and 0.791 µM in test [1].
Consider `Cc1cc(CNC(=O)Nc2cnc(OCC(F)(F)F)c(C(F)(F)F)c2)nnc1-c1cn(C)nc1C(F)(F)F` [Compound 12, 1-[[5-methyl-6-[1-methyl-3-(trifluoromethyl)pyrazol-4-yl]pyridazin-3-yl]methyl]-3-[6-(2,2,2-trifluoroethoxy)-5-(trifluoromethyl)-3-pyridyl]urea], for which the results for the EC50 (at S1PR2; in test [1]) were 0.59 µM and 0.0117 µM, respectively.
Compound `Cc1cc(CNC(=O)Nc2cnc(OCC(F)F)c(Cl)c2)nnc1N1CC(C)OC(C)C1` (stereo not shown) [Compound 84, 1-[5-chloro-6-(2,2-difluoroethoxy)-3-pyridyl]-3-[[6-(2,6-dimethyl-morpholin-4-yl)-5-methyl-pyridazin-3-yl]methyl]urea] registered an EC50 in test [1] of 6.51 µM.
As for `Cc1cc(CNC(=O)Nc2cc(Cl)c(F)c(Cl)c2)nnc1-c1cn(C)nc1C(F)(F)F` [Compound 32, 1-(3,5-dichloro-4-fluoro-phenyl)-3-[[5-methyl-6-[1-methyl-3-(trifluoromethyl)pyrazol-4-yl]pyridazin-3-yl]methyl]urea], the EC50 at S1PR2 worked out at 0.164 µM; in test [1], 0.0111 µM.
Regarding `CCOc1cc(NC(=O)NCc2cc(C)c(N3CC(C)O[C@H](C)C3)nn2)cc(C(F)(F)F)n1` (stereo in doubt) [Compound 100, 1-[[6-[(2R,6S)-2,6-dimethyl-morpholin-4-yl]-5-methyl-pyridazin-3-yl]methyl]-3-(2-ethoxy-6-(trifluoromethyl)-4-pyridyl]urea], the results for the EC50 in test [2] and in test [3] were 6.61 µM and 2.48 µM, respectively.
